Measured values from US9757375B2, “Compounds that inhibit human DNA ligases and methods of treating cancer” (University of Maryland, Baltimore, priority 2007, dated 2017).
“Also recorded” adds a separate entry of the source. Like-named read-outs stand apart in the source and are kept apart here. Blank lines part the entries; values can stand above or below the molecule they belong to.

How the values were obtained:
human DNA ligase IV = human DNA ligase IV (Homo sapiens, UniProt P49917); assay: High-throughput fluorescence-based DNA joining (ligation) assay; format: biochemical; conditions: for inhibition of human DNA ligase IV, in words: in vitro screen
Sequence of human DNA ligase IV (P49917 whole entry): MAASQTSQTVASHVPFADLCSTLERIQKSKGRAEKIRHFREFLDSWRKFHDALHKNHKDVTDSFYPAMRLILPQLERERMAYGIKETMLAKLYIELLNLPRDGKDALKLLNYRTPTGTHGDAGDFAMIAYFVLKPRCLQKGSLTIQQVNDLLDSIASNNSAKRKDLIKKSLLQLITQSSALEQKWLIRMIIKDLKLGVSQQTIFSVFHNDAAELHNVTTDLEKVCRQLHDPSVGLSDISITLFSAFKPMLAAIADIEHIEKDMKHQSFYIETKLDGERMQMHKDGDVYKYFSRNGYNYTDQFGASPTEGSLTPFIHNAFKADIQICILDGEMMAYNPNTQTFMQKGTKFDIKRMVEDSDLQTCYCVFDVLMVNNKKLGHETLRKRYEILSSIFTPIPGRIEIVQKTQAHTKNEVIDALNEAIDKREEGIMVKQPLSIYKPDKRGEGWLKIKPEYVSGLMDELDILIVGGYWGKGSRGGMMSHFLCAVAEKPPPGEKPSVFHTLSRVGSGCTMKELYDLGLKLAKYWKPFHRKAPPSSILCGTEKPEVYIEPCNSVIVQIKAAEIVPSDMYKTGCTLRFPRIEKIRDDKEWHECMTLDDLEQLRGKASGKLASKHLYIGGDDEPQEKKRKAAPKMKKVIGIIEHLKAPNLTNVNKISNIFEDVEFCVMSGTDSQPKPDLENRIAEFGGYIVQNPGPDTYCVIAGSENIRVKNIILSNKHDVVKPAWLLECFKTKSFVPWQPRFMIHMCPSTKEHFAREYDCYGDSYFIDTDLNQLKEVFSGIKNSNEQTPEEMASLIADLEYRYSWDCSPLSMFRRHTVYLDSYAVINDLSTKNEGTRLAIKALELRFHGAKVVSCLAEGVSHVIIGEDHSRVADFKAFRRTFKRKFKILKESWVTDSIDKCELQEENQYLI
Sequence of human DNA ligase IV (Q13426 whole entry partner): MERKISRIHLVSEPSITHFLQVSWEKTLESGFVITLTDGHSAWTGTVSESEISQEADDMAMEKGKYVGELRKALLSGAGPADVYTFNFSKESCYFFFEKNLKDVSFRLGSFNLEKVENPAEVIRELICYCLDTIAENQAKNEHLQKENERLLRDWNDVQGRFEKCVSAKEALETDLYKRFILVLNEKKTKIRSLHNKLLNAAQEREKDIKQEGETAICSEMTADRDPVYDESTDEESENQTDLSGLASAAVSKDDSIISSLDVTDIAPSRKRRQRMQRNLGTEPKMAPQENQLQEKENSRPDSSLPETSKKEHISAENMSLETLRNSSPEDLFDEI
Method in brief: (§1)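 Ligation joins an AF488-labelled and a BHQ1-labelled oligonucleotide. After denaturation and renaturation with a 20-fold excess of unlabelled competitor strand, the product forms a quenched hairpin, so joining is read as loss of 518 nm fluorescence. Ligase III used a nicked duplex; ligase IV used two duplexes with short complementary single-strand ends.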

human DNA ligase III = molecular target: T1, human DNA ligase III (Homo sapiens, UniProt P49916); assay: as above; format: biochemical; conditions: for inhibition at 100 µM: read-out: In vitro % inhib hLigIII 100; for % activity Inhibition hLigIII 100 uM: Ø not defined (0 in Table 5A)
T1 sequence (P49916 1-862 isoform P49916-4): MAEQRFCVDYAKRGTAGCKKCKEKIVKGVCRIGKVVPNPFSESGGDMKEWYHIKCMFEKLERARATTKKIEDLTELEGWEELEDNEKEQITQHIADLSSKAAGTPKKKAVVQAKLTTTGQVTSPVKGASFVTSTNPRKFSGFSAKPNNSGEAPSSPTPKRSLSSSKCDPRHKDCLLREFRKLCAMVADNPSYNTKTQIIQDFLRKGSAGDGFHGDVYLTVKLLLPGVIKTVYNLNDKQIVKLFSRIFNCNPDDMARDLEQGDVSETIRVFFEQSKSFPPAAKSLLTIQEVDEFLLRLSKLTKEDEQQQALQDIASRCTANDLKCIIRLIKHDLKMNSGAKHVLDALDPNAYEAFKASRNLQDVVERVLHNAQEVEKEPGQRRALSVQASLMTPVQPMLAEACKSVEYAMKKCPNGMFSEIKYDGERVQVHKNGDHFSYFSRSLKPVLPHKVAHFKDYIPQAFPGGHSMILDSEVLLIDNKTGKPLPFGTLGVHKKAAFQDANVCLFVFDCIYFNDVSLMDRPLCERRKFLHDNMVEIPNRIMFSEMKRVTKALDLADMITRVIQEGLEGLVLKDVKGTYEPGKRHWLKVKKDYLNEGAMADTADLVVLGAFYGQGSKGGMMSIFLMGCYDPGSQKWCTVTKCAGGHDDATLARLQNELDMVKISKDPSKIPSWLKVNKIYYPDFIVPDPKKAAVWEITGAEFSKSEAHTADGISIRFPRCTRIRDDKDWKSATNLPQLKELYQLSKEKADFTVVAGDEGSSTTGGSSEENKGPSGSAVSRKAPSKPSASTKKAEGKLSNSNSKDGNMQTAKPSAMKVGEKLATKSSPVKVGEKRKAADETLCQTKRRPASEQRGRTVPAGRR
Method in brief: as §1

hLigI = molecular target: T2, hLigI (Homo sapiens, UniProt P18858); assay: as above; format: biochemical; conditions: for inhibition of hLigI (DNA ligase I), in words: in vitro screen, 100 μmol/L, the 15 hLigI inhibitors inhibited by >50%
T2 construct: made in house
T2 sequence (P18858 whole entry): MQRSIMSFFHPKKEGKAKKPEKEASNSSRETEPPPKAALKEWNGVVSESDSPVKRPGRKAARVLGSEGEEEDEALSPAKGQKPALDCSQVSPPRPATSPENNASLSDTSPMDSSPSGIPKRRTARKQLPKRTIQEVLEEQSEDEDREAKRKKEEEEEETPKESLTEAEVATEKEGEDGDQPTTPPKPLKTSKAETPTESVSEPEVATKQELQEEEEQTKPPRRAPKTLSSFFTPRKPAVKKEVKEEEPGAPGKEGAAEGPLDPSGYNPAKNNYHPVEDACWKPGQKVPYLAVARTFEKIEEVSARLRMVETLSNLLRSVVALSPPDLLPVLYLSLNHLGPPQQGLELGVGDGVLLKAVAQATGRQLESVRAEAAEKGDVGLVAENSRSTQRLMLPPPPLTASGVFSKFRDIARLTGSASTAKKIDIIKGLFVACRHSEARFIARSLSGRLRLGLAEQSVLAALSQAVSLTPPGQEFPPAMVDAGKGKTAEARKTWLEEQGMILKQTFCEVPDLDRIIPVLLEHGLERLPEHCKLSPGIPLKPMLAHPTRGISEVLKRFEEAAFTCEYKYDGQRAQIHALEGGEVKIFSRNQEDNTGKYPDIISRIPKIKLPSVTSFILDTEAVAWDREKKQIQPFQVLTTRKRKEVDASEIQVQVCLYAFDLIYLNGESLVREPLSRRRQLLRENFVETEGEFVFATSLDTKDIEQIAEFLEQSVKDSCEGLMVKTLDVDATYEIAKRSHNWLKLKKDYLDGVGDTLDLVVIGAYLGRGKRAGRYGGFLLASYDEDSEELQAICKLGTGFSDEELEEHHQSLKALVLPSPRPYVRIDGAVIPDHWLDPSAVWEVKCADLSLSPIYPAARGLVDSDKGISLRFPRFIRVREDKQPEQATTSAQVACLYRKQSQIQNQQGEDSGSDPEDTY
Method in brief: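 Nicked DNA substrate (10 pmol) was incubated with 0.25 pmol hLigI, with or without 100 μmol/L test compound, in duplicate. Afterwards the DNA was denatured and renatured with a 20-fold excess of unmodified oligonucleotide. Ligation forms an AF488/BHQ1 hairpin, read as reduced fluorescence at 518 nm.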

hLigIIIβ = molecular target: T3, hLigIIIβ (Homo sapiens, UniProt P49916); assay: Radioactive gel-based DNA ligation assay; format: biochemical; conditions: grades ±, Ø (key not given)
T3 sequence (P49916 1-862 isoform P49916-4): T1 sequence (P49916 1-862 isoform P49916-4)

T4 DNA ligase = molecular target: T4, T4 DNA ligase (Enterobacteria phage T4, UniProt P00970); assay: High-throughput fluorescence-based DNA joining assay, non-specific inhibitor control; format: biochemical, bacteriophage T4
T4 construct: purchased NEB
T4 sequence (P00970 1-487): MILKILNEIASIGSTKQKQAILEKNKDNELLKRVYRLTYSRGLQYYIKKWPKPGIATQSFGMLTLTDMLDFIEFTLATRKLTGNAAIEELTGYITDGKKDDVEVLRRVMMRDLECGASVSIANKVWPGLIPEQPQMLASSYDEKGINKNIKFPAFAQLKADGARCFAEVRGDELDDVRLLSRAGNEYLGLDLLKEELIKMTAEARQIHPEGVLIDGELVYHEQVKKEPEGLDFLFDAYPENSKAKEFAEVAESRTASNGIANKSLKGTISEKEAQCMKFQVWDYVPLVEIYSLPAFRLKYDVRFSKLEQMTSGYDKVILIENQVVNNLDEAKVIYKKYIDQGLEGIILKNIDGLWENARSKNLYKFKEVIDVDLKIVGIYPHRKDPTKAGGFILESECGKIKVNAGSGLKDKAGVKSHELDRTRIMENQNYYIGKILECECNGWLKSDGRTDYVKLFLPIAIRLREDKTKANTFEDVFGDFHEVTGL
Method in brief: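 This counter-screen used a FRET-based DNA joining assay. Duplicate reactions held 10 pmol nicked DNA substrate and 10 units T4 DNA ligase, with or without 100 μmol/L compound. T4 ligase lacks the DNA-binding domain targeted in silico, so compounds inhibiting it were flagged as non-specific, likely DNA-binding.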

[1] = tested on: Human DNA ligases I, III and IV and T4 DNA ligase; assay: Step 3 of the ligation reaction: ligation of preadenylated nick by non-adenylated ligase; format: biochemical; conditions: 100 μM, FIG. 3C
Procedure: To analyze step 3 of the ligation reaction, an adenylated labeled version of the 18-mer was prepared as described (24). The DNA substrate containing a preadenylated nick (0.5 pmol) and hLigI (0.05 pmol), hLigIIIβ (0.05 pmol), hLigIV/XRCC4 (0.1 pmol), or T4 DNA ligase (0.05 pmol) were incubated in ligation buffer without ATP, either in the presence or absence of the ligase inhibitors (100 μmol/L). Reactions were stopped by the addition of an equal volume of gel loading dye (95% formamide, 0.05% bromophenol blue, and 0.05% xylene cyanol). After heating at 95° C. for 5 min, DNA was separated by denaturing polyacrylamide gel electrophoresis. Labeled oligonucleotides were detected and quantitated in the dried gel by phosphorImager analysis (Molecular Dynamics).
Since the final two steps of the ligation reaction involve interactions with DNA, we examined the effects of the ligase inhibitors on the second (FIG. 3B) (The labeled ligase-adenylate form of human DNA ligases I, III and IV and T4 DNA ligase were incubated with a linear DNA substrate containing a single non-ligatable nick in the absence or presence of compounds 67, 82 and 189 (100 μM). After separation by denaturing gel electrophoresis, the labeled DNA-AMP complex was detected by phosphorimaging (26)) and third steps (FIG. 3C) of the ligation reaction using established assays (25,26) (Non-adenylated human DNA ligases I, III and IV and T4 DNA ligase were incubated with labeled DNA-AMP in the absence or presence of compounds 67, 82 and 189 (100 μM). After separation by denaturing gel electrophoresis, labeled ligated DNA was detected by phosphorimaging (25)).

hLigIV/XRCC4 = hLigIV/XRCC4 (Homo sapiens, UniProt P49917); assay: Radioactive gel-based DNA ligation assay; format: biochemical; design: concentration or dose not given beside the values
Sequence of hLigIV/XRCC4 (P49917 whole entry): as the sequence (P49917 whole entry) above
Sequence of hLigIV/XRCC4 (Q13426 whole entry partner): as the sequence (Q13426 whole entry partner) above

[2] = tested on: MCF7, HCT116, HeLa, and MCF10A cells; assay: Survival assay on cell panel (FIG. 9); format: cell-based, human; conditions: Homo sapiens; cell line not stated
Description: FIG. 9. […] A, effect of L67 (left) and L189 (right) on the survival of MCF7 (Δ), HCT116 (□), HeLa (⋄), and MCF10A (upsidedown triangle) cells. B, normal breast epithelial MCF10A cells (open symbols) and breast cancer MCF7 cells (filled symbols) in the absence (circles) or presence of 3 μmol/L of L67 (squares) were exposed to increasing concentrations of MMS (left). Normal breast epithelial MCF10A cells (open symbols) and colon cancer HCT116 cells (filled symbols) in the absence (circles) or presence of 20 μmol/L of L189 (squares) were exposed to increasing doses of ionizing radiation (right). C, hLigI (I), hLigIIIα (III), and hLigIV (IV) were detected in extracts (400 μg) of the indicated cell lines by immunoblotting. To control for extract loading β-actin was also detected by immunoblotting.
For survival assays, cells were plated in 6 well plates and grown either in the absence or presence of ligase inhibitors. Where indicated, either MMS (0-50 μM) was added to the medium or the cells were irradiated in a Cs-137 irradiator (0-2.5 Gy). After two weeks, colonies were stained with crystal violet (Sigma) and then counted.

[3] = 100 μM, read-out: In vitro % inhib hLigIV 100
[4] = 100 uM, Ø not defined (0 in Table 5A)
[5] = 100 μM, read-out: In vitro % inhib hLigI 100
[6] = 100 μM, read-out: In vitro % inhib T4 100
[7] = 100 uM, Ø not defined (0 in Table 5A), read-out: % activity Inhibition hLigIV 100 uM

SMILES: CSc1ccc(C(=O)O)s1 [Compound 1]
- inhibition at 100 µM (human DNA ligase IV; [3]): 0%
- % activity Inhibition hLigIV 100 uM (human DNA ligase IV; [4]): Ø
- inhibition at 100 µM (human DNA ligase III; 100 μM): 0%
- % activity Inhibition hLigIII 100 uM (human DNA ligase III): Ø
- inhibition at 100 µM (hLigI; 100 uM, read-out: % activity Inhibition hLigI 100 uM): 40.3 ± 8.6%
- inhibition at 100 µM (hLigI; [5]): 40 ± 9%
- inhibition of hLigI (DNA ligase I), in words (hLigI): specific for DNA ligase I
- % activity Inhibition hLigIII gel (hLigIIIβ): Ø
- inhibition at 100 µM (T4 DNA ligase; [6]): 0%
- inhibition at 100 µM (T4 DNA ligase; read-out: % activity Inhibition LigT4 100 uM): 0%

- inhibition of step 3 of the ligation reaction [1]: inhibit step 3
SMILES: O=C(O)CN1C(=O)C(=O)c2ccccc21 [Compound 76]

SMILES: NS(=O)(=O)c1ccc(CCNC(=O)CCS(=O)(=O)c2ccc(Br)cc2)cc1 [Compound 113]
- % activity Inhibition hLigIV gel (hLigIV/XRCC4): 83%
- In vitro % inhib hLigIV 100 (μM) (human DNA ligase IV; 100 μM): 83 ± 5%
- % activity Inhibition hLigIV 100 uM (human DNA ligase IV; [4]): >50%
- inhibition of human DNA ligase IV, in words (human DNA ligase IV): specifically inhibits both DNA ligases I and IV
- In vitro % inhib hLigIII 100 (μM) (human DNA ligase III; 100 μM): 0%
- % activity Inhibition hLigIII 100 uM (human DNA ligase III): Ø
- % activity Inhibition hLigI 100 uM (hLigI; 100 uM): 53.4 ± 7.6%
- In vitro % inhib hLigI 100 (μM) (hLigI; 100 μM): 53 ± 8%
- hLigI_Inh % (100 μM) (hLigI; 100 μM, percentage of values obtained with DMSO alone): 53.4 ± 7.6%
- inhibition of hLigI (DNA ligase I), in words (hLigI): inhibited hLigI; also recorded: specifically inhibits both DNA ligases I and IV
- % activity Inhibition hLigIII gel (hLigIIIβ): Ø
- % activity Inhibition LigT4 100 uM (T4 DNA ligase): 5.4 ± 4.5%
- In vitro % inhib T4 100 (μM) (T4 DNA ligase; 100 μM): 5 ± 5%

SMILES: O=C(O)Cc1cncc(Br)c1 [Compound 122]
- % activity Inhibition hLigIV gel (hLigIV/XRCC4): 50%
- EC50 [2]: > 100 µM
- inhibition at 100 µM (human DNA ligase IV; [3]): 50 ± 5%
- inhibition at 100 µM (human DNA ligase IV; [7]): 16.1 ± 19.1%
- inhibition of human DNA ligase IV, in words (human DNA ligase IV): specific for DNA ligase IV
- inhibition at 100 µM (human DNA ligase III; 100 μM): 0%
- % activity Inhibition hLigIII 100 uM (human DNA ligase III): Ø
- % activity Inhibition hLigI 100 uM (hLigI; 100 uM): Ø
- inhibition at 100 µM (hLigI; [5]): 0%
- % activity Inhibition LigT4 100 uM (T4 DNA ligase): Ø
- inhibition at 100 µM (T4 DNA ligase; [6]): 0%

SMILES: O=C(O)c1cnn2c(C(F)(F)F)cc(-c3ccco3)nc12 [Compound 215]
- % activity Inhibition hLigIV gel (hLigIV/XRCC4): 53%
- EC50 [2]: > 100 µM
- inhibition at 100 µM (human DNA ligase IV; [3]): 61 ± 1%
- inhibition at 100 µM (human DNA ligase IV; [7]): 60.7 ± 1.3%
- inhibition of human DNA ligase IV, in words (human DNA ligase IV): specific for DNA ligase IV
- inhibition at 100 µM (human DNA ligase III; 100 μM): 0%
- % activity Inhibition hLigIII 100 uM (human DNA ligase III): Ø
- % activity Inhibition hLigI 100 uM (hLigI; 100 uM): Ø
- inhibition at 100 µM (hLigI; [5]): 0%
- % activity Inhibition LigT4 100 uM (T4 DNA ligase): Ø
- inhibition at 100 µM (T4 DNA ligase; [6]): 0%
